Reference: patent US20240158446A1, “CYCLIC COMPOUND HAVING SELECTIVE INHIBITORY ACTION ON KRAS OVER HRAS AND NRAS” (CHUGAI SEIYAKU KABUSHIKI KAISHA, priority 2021, published 2024)
Like-named read-outs stand apart in the source and are kept apart here. Where a SMILES comes first, the peptide text is derived from it. Bridges are numbered along the chain shown (N, C = ends). [ ]: non-standard residue; d: D form. The star is where a group is joined. hPhe(3-Cl-4-CF3) = N[C@@H](CCc1ccc(C(F)(F)F)c(Cl)c1)C(=O)O; NPrPhe(4-CF3) = CCCN[C@@H](Cc1ccc(C(F)(F)F)cc1)C(=O)O; 3Oxa8azabicyclo(3.2.1)octane = C1CC2COCC1N2*; NEtPhe(4-Me) = CCN[C@@H](Cc1ccc(C)cc1)C(=O)O; NMeGly(cPent) = CN[C@H](C(=O)O)C1CCCC1; Hyp = O=C(O)[C@@H]1C[C@@H](O)CN1; NMeD = CN[C@@H](CC(=O)O)C(=O)O; NMeL = CN[C@@H](CC(C)C)C(=O)O; Morpholide = C1CN(*)CCO1; Ac5c = NC1(C(=O)O)CCCC1; Sar = CNCC(=O)O

What was measured:
[1] = target: GDP-bound NRAS wild-type protein (Homo sapiens, UniProt P01111); assay: Binding to NRAS by surface plasmon resonance (SPR), Single Cycle Kinetics; conditions: SPR; for NRAS/KRAS (ratio of KD value for NRAS to KD value for KRAS): GDP-bound NRAS wild-type protein vs GDP-bound KRAS wild-type protein
[2] = target: GDP-bound KRAS wild-type protein (Homo sapiens, UniProt P01116); assay: Binding to KRAS by surface plasmon resonance (SPR), Single Cycle Kinetics; conditions: GDP-bound KRAS wild-type protein, read-out: KRAS KD
[3] = system: human lung cancer strain NCI-H441;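 further: cell proliferation inhibition after four days measured by CellTiter-Glo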
[4] = target: GDP-bound HRAS wild-type protein (Homo sapiens, UniProt P01112); assay: Binding to HRAS by surface plasmon resonance (SPR), Single Cycle Kinetics; conditions: SPR; for HRAS/KRAS (ratio of KD value for HRAS to KD value for KRAS): GDP-bound HRAS wild-type protein vs GDP-bound KRAS wild-type protein
[5] = SPR, Single Cycle Kinetics, 1:1 binding model
[6] = SPR Single Cycle Kinetics, 1:1 binding model

Chain of GDP-bound KRAS wild-type protein (P01116 whole entry): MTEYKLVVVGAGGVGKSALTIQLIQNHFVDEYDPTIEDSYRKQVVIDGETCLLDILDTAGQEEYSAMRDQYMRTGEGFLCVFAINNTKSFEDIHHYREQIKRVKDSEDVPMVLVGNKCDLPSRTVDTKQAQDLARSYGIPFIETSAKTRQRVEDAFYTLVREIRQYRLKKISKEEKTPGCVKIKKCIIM
Chain of GDP-bound HRAS wild-type protein (P01112 whole entry): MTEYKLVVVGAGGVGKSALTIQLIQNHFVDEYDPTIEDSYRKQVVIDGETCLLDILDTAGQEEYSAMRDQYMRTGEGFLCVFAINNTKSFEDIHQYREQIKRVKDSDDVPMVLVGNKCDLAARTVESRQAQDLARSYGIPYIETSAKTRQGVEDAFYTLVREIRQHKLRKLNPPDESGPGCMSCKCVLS
Chain of GDP-bound NRAS wild-type protein (P01111 whole entry): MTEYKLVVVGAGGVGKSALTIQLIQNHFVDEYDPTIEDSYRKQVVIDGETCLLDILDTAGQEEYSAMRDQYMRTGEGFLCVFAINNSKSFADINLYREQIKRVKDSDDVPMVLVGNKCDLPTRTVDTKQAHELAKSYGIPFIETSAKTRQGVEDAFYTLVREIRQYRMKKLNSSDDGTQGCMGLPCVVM

Structure (SMILES) | NRAS/KRAS (ratio of KD value for NRAS to KD value for KRAS) ([1]; KD ratio class) | Kd [2, 5] [nM] | IC50 [3] [nM] | HRAS/KRAS (ratio of KD value for HRAS to KD value for KRAS) ([4]; KD ratio class) | NRAS/KRAS (ratio of KD value for NRAS to KD value for KRAS) [1] | Kd [2, 6] [nM] | HRAS/KRAS (ratio of KD value for HRAS to KD value for KRAS) [4] | ratio of the KD value with respect to GDP-bound NRAS wild-type protein to the KD value with respect to KRAS ([1]; KD(NRAS)/KD(KRAS)) | Kd ([2]; SPR, Single Cycle Kinetics) [nM] | IC50 ([3]; read-out: NCI-H441 cell proliferation inhibitory activity, 50% proliferation inhibitory concentration (IC50 value), NCI-H441, four days, CellTiter-Glo) [nM] | ratio of the KD value with respect to GDP-bound HRAS wild-type protein to the KD value with respect to KRAS ([4]; KD(HRAS)/KD(KRAS))
CCCOC[C@H]1C(=O)N[C@@H]([C@@H](C)CC)C(=O)N(C)CC(=O)N(C)[C@H]2C/C=C\CCN(C2=O)[C@@H](Cc2ccc(C)cc2)C(=O)N(C)CC(=O)N[C@@H](CCc2cc(F)c(C(F)(F)F)c(F)c2)C(=O)N2C[C@H](OCC)C[C@H]2C(=O)NC2(CC(C)(C)C2)C(=O)N(C)[C@@H](C2CCCC2)C(=O)N(C)[C@H](C(=O)N(C)C)CC(=O)N1C [PP1400, (2S,8S,12R,14S,20S,23S,27S,30S,36S,38Z)-20-cyclopentyl-8-[2-[3,5-difluoro-4-(trifluoromethyl)phenyl]ethyl]-12-ethoxy-N,N,3′,3′,4,19,22,26,32,35-decamethyl-30-[(1S)-1-methylpropyl]-3,6,9,15,18,21,25,28,31,34,42-undecaoxo-27-(propoxymethyl)-2-(p-tolylmethyl)spiro[1,4,7,10,16,19,22,26,29,32,35-undecazatricyclo[34.5.1.0^10,14]dotetracont-38-ene-17,1′-cyclobutane]-23-carboxamide] | A (a compound having 10 or more and less than 20 is denoted as A) | 0.049 | 5.1 | B (a compound having 3 or more and less than 10 is denoted as B) | – | – | – | – | – | – | –
CCCN1C(=O)CN(C)C(=O)CN(C)C(=O)[C@H]([C@@H](C)CC)NC(=O)[C@H](CC(C)C)N(C)C(=O)C[C@@H](C(=O)N2C3CCC2COC3)N(C)C(=O)[C@H](C2CCCC2)N(C)C(=O)C2(CCCC2)NC(=O)[C@@H]2CCCN2C(=O)[C@H](CCc2ccc(C(F)(F)F)c(Cl)c2)NC(=O)CN(C)C(=O)[C@@H]1Cc1ccc(C(F)(F)F)cc1 [PP0173] ([NMeL]I[Sar][Sar][NPrPhe(4-CF3)][Sar][hPhe(3-Cl-4-CF3)]P[Ac5c][NMeGly(cPent)][NMeD]-{3Oxa8azabicyclo(3.2.1)octane}; lactam N-11) | – | – | 11.6 | – | B (a compound having 3 or more and less than 10 is denoted as B) | 0.67 | C (A compound having a KD ratio of 0.1 or more and less than 3 is denoted as C) | – | – | – | –
CC[C@H](C)[C@@H]1NC(=O)[C@@H]2CCCCc3ccc(cc3)C[C@@H](C(=O)N(C)CC(=O)N[C@@H](CCc3ccc(C(F)(F)F)c(OC)c3)C(=O)N3C[C@H](OC4CCCC4)C[C@H]3C(=O)NC3(CC(C)(C)C3)C(=O)N(C)[C@@H](C3CCCC3)C(=O)N(C)[C@H](C(=O)N(C)C)CC(=O)N2C)N2CC/C=C\C[C@@H](C2=O)N(C)C(=O)CN(C)C1=O [PP3080] | – | – | – | – | A (a compound having 10 or more and less than 20 is denoted as A) | – | B (a compound having 3 or more and less than 10 is denoted as B) | A (a compound having 10 or more and less than 20 is denoted as A) | 0.037 | 4.3 | B (a compound having 3 or more and less than 10 is denoted as B)
CCO[C@@H]1C[C@H]2C(=O)NC3(CCC3)C(=O)N(C)[C@@H](C3CCCC3)C(=O)N(C)[C@@H](C(=O)N(C)C)CC(=O)N(C)[C@@H](CC)C(=O)N[C@@H]([C@@H](C)CC)C(=O)N(C)CC(=O)N(C)[C@H]3C/C=C\CCN(C3=O)[C@@H](Cc3ccc(C(F)(F)F)cc3)C(=O)N(C)CC(=O)N[C@@H](CCc3cc(F)c(C(F)(F)F)c(F)c3)C(=O)N2C1 [PP1234] | B (a compound having 3 or more and less than 10 is denoted as B) | 3.8 | 398 | C (A compound having a KD ratio of 0.1 or more and less than 3 is denoted as C) | – | – | – | – | – | – | –
CCCOC[C@H]1C(=O)N[C@@H]([C@@H](C)OCC)C(=O)N2CCC[C@H]2C(=O)N(C)[C@H]2C/C=C\CCN(C2=O)[C@@H](Cc2ccc(C)cc2)C(=O)N(C)CC(=O)N[C@@H](CCc2cc(F)c(C(F)(F)F)c(F)c2)C(=O)N2C[C@H](OCC)C[C@H]2C(=O)NC2(CC(C)(C)C2)C(=O)N(C)[C@@H](C2CCCC2)C(=O)N(C)[C@H](C(=O)N(C)CC)CC(=O)N1C [PP2432] | – | – | 138 | – | A (a compound having 10 or more and less than 20 is denoted as A) | – | A (a compound having 10 or more and less than 20 is denoted as A) | – | 1.4 | – | –
CCO[C@@H]1C[C@H]2C(=O)NC3(CCC3)C(=O)N(C)[C@@H](C3CCCC3)C(=O)N(C)[C@H](C(=O)N(C)C)CC(=O)N(C)[C@@H](CC3CCCC3)C(=O)N[C@@H]([C@@H](C)CC)C(=O)N(C)CC(=O)N(C)[C@H]3C/C=C\CCN(C3=O)[C@@H](Cc3ccc(F)cc3)C(=O)N(C)CC(=O)N[C@@H](CCc3ccc4sccc4c3)C(=O)N2C1 [PP1390] | A (a compound having 10 or more and less than 20 is denoted as A) | 1.1 | 305 | A (a compound having 10 or more and less than 20 is denoted as A) | – | – | – | – | – | – | –
CCO[C@@H]1C[C@H]2C(=O)NC3(CCC3)C(=O)N(C)[C@@H](C3CCCC3)C(=O)N(C)[C@H](C(=O)N3CCOCC3)CC(=O)N(C)[C@@H](C)C(=O)N[C@@H]([C@@H](C)CC)C(=O)N(C)CC(=O)N(C)[C@H]3CCCCCN(C3=O)[C@@H](Cc3ccc(F)cc3)C(=O)N(C)CC(=O)N[C@@H](CCc3cc(F)c(C(F)(F)F)c(F)c3)C(=O)N2C1 [PP1175] | – | – | 23.5 | – | B (a compound having 3 or more and less than 10 is denoted as B) | – | B (a compound having 3 or more and less than 10 is denoted as B) | – | 0.16 | – | –
CCO[C@@H]1C[C@H]2C(=O)NC3(CC(C)(C)C3)C(=O)N(C)[C@@H](C(CC)CC)C(=O)N(C)[C@H](C(=O)N(C)C)CC(=O)N(C)[C@@H](C(C)C)C(=O)N[C@@H]([C@@H](C)CC)C(=O)N(C)CC(=O)N(C)[C@H]3C/C=C\CCN(C3=O)[C@@H](CC3CCC(F)(F)CC3)C(=O)N(C)CC(=O)N[C@@H](CCc3cc(F)c(C(F)(F)F)c(F)c3)C(=O)N2C1 [PP2481] | – | – | 33.6 | – | A (a compound having 10 or more and less than 20 is denoted as A) | – | A (a compound having 10 or more and less than 20 is denoted as A) | – | 1.6 | – | –
CC[C@H](C)[C@@H]1NC(=O)[C@H](CC(C)C)N(C)C(=O)C[C@@H](C(=O)N2CCOCC2)N(C)C(=O)[C@H](C2CCCC2)N(C)C(=O)C2(CCCC2)NC(=O)[C@@H]2C[C@@H](O)CN2C(=O)[C@H](CCc2ccc(C(F)(F)F)c(Cl)c2)NC(=O)CN(C)C(=O)[C@H](Cc2ccc(C)cc2)N(CC)C(=O)CN(C)C(=O)CN(C)C1=O [PP0041] ([NMeL]I[Sar][Sar][NEtPhe(4-Me)][Sar][hPhe(3-Cl-4-CF3)][Hyp][Ac5c][NMeGly(cPent)][NMeD]-Morpholide; lactam N-11) | – | – | 62.7 | – | B (a compound having 3 or more and less than 10 is denoted as B) | 0.12 | C (A compound having a KD ratio of 0.1 or more and less than 3 is denoted as C) | – | – | – | –
CCO[C@@H]1C[C@H]2C(=O)NC3(CCC3)C(=O)N(C)[C@@H](C3CCCC3)C(=O)N(C)[C@H](C(=O)N(C)C)CC(=O)N(C)[C@@H](Cc3ccccc3C#N)C(=O)N[C@@H]([C@@H](C)CC)C(=O)N(C)CC(=O)N(C)[C@H]3CCCCCN(C3=O)[C@@H](Cc3ccc(C(F)(F)F)cc3)C(=O)N(C)CC(=O)N[C@@H](CCc3cc(F)c(C(F)(F)F)c(F)c3)C(=O)N2C1 [PP1171] | – | – | 118 | – | B (a compound having 3 or more and less than 10 is denoted as B) | – | B (a compound having 3 or more and less than 10 is denoted as B) | – | 0.69 | – | –
CC[C@H](C)[C@@H]1NC(=O)[C@H](CC)N(C)C(=O)C[C@@H](C(=O)N(C)C)N(C)C(=O)[C@H](C2CCCC2)N(C)C(=O)C2(CCC2)NC(=O)[C@@H]2C[C@@H](C(F)(F)F)CN2C(=O)[C@H](CCc2cc(F)c(C(F)(F)F)c(F)c2)NC(=O)CN(C)C(=O)[C@H](CC2CCCCC2)N2CC/C=C\C[C@@H](C2=O)N(C)C(=O)CN(C)C1=O [PP1465] | A (a compound having 10 or more and less than 20 is denoted as A) | 0.36 | 34.1 | A (a compound having 10 or more and less than 20 is denoted as A) | – | – | – | – | – | – | –
CCCOC[C@H]1C(=O)N[C@@H]([C@@H](C)CC)C(=O)N2CCC[C@H]2C(=O)N(C)[C@H]2C/C=C\CCN(C2=O)[C@@H](CC2CCC(F)(F)CC2)C(=O)N(C)CC(=O)N[C@@H](CCc2ccc(C(F)(F)F)c(OC)c2)C(=O)N2C[C@H](OCC)C[C@H]2C(=O)N(C)C2(CCC2)C(=O)N(C)[C@@H](C2CCCC2)C(=O)N(C)[C@H](C(=O)N(C)C)CC(=O)N1C [PP2357] | – | – | 59.7 | – | A (a compound having 10 or more and less than 20 is denoted as A) | – | B (a compound having 3 or more and less than 10 is denoted as B) | – | 1.2 | – | –
